# Source: patent US11285156B2, “Substituted piperazines as KRAS G12C inhibitors” (Amgen Inc., priority 2018, dated 2022)
# Molecular target: GDP-bound KRAS protein (aa 1-169), containing both G12C and C118A amino acid substitutions (Homo sapiens (Human), UniProt P01116, C118A/G12C)
# Experiment: Coupled nucleotide exchange assay (SOS-mediated nucleotide exchange, AlphaScreen)
# Type: biochemical
# Settings: 5 min compound pre-incubation
# Protocol: Coupled Nucleotide Exchange Assay:
# Following compound pre-incubation, purified SOS protein (aa 564-1049) and GTP (Roche 10106399001) were added to the assay wells and incubated for an additional 30 min (for 5 min compound pre-incubation) or 1 hour (for 2 hour compound pre-incubation). […] The assay plates were then read on a PerkinElmer EnVision Multilabel Reader, using AlphaScreen® technology, and data were analyzed using a 4-parameter logistic model to calculate IC50 values.
# GDP-bound KRAS protein (aa 1-169), containing both G12C and C118A amino acid substitutions, sequence (P01116 other isoform, or with tags, fused parts or gaps G12C/C118A): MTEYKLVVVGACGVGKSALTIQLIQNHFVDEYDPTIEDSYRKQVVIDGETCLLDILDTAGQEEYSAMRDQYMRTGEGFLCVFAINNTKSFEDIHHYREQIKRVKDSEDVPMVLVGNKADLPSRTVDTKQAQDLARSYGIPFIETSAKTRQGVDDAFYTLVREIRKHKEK
row,Coupled exchange IC50 (5 min; μM) [µM],SMILES
1,0.066,"C=CC(=O)N1C[C@H](C)N(c2nc(=O)n(-c3c(C)cc(C4CC4)nc3C(C)C)c3nc(-c4ccccc4F)c(Cl)cc23)C[C@H]1C (single isomer, unassigned) [Example 164-1]"
2,3.44,"C=CC(=O)N1C[C@H](C)N(c2nc(=O)n(-c3c(C)cc(C4CC4)nc3C(C)C)c3nc(-c4ccccc4F)c(Cl)cc23)C[C@H]1C (single isomer, unassigned) [Example 164-2]"
3,1.032,"C=CC(=O)N1C[C@H](C)N(c2nc(=O)n(-c3c(C)cc(CC)nc3C(C)C)c3nc(-c4ccccc4F)c(Cl)cc23)C[C@H]1C (single isomer, unassigned) [Example 166-2]"
4,0.14,"C=CC(=O)N1C[C@H](C)N(c2nc(=O)n(-c3c(C(C)C)cc(N4CCC4)nc3C(C)C)c3nc(-c4ccccc4F)c(Cl)cc23)C[C@H]1C (single isomer, unassigned) [Example 182-1]"
5,0.187,"C=CC(=O)N1C[C@H](C)N(c2nc(=O)n(-c3c(C(C)C)cc(N4CCC4)nc3C(C)C)c3nc(-c4ccccc4F)c(Cl)cc23)C[C@H]1C (single isomer, unassigned) [Example 182-2]"
6,2.99,"C=CC(=O)N1C[C@H](C)N(c2nc(=O)n(-c3c(C)nc(Cl)nc3C(C)C)c3nc(-c4ccccc4F)c(Cl)cc23)C[C@H]1C (single isomer, unassigned) [Example 191-1]"
7,1.59,"C=CC(=O)N1C[C@H](C)N(c2nc(=O)n(-c3c(C)nc(Br)nc3C(C)C)c3nc(-c4ccccc4F)c(Cl)cc23)C[C@H]1C (single isomer, unassigned) [Example 197-1]"
8,1.34,"C=CC(=O)N1C[C@H](C)N(c2nc(=O)n(-c3c(C(C)C)cccc3[S+](C)[O-])c3nc(-c4ccccc4F)c(Cl)cc23)C[C@H]1C (single isomer, unassigned) [Example 209-2]"
9,13.4,"C=CC(=O)N1C[C@H](C)N(c2nc(=O)n(C3CCCCC3)c3nc(-c4ccccc4F)c(Cl)cc23)C[C@H]1C [110-2, 6-Chloro-1-cyclohexyl-4-[(2S,5R)-2,5-dimethyl-4-prop-2-enoyl-piperazin-1-yl]-7-(2-fluorophenyl)pyrido [2,3-d]pyrimidin-2-one]"

row,SMILES,Coupled exchange IC50 (5 min; μM) [µM]
1,"C=CC(=O)N1CCN(c2nc(=O)n(-c3c(C)cc(N)nc3C(C)C)c3nc(-c4ccccc4F)c(Cl)cc23)[C@@H](C)C1 (single isomer, unassigned) [Example 183-1]",0.61
2,"C=CC(=O)N1C[C@H](C)N(c2nc(=O)n(-c3c(N)ncnc3C(C)C)c3nc(-c4ccccc4F)c(Cl)cc23)C[C@H]1C (single isomer, unassigned) [Example 189-2]",14.7
3,"C=CC(=O)N1C[C@H](C)N(c2nc(=O)n(-c3c(C)ncnc3C(C)C)c3nc(-c4ccccc4F)c(Cl)cc23)C[C@H]1C (single isomer, unassigned) [Example 194-2]",1.45
4,"C=CC(=O)N1C[C@H](C)N(c2nc(=O)n(-c3c(C)cc([S+](C)[O-])cc3C(C)C)c3nc(-c4ccccc4C)c(Cl)cc23)C[C@H]1C (single isomer, unassigned) [Example 213-1]",1.5
5,"C=CC(=O)N1C[C@H](C)N(c2nc(=O)n(-c3c(C)cc([S+](C)[O-])cc3C(C)C)c3nc(-c4ccccc4C)c(Cl)cc23)C[C@H]1C (single isomer, unassigned) [Example 213-4]",1.51
6,"C=CC(=O)N1C[C@H](C)N(c2nc(=O)n(-c3c(C)cc(S(C)(=O)=O)cc3C(C)C)c3nc(-c4ccccc4F)c(Cl)cc23)C[C@H]1C (single isomer, unassigned) [Example 215-1]",3.79

# Same assay, conditions: read-out: Coupled exchange IC50 (5 min; μM); 5 min compound pre-incubation
row,SMILES,IC50 [µM]
1,"C=CC(=O)N1[C@H](C)CN(c2nc(=O)n(-c3c(C)cc(N)nc3C(C)C)c3nc(-c4ccccc4F)c(F)cc23)C[C@@H]1C (single isomer, unassigned) [Example 123-4]",1
2,"C=CC(=O)N1CCN(c2nc(=O)n(-c3c(C)ccnc3C(C)C)c3nc(-c4c(O)cccc4F)c(F)cc23)C(C)C1C (single isomer, unassigned) [Example 124-14-1, 4-[cis-2,3-dimethyl-4-prop-2-enoyl-piperazin-1-yl]-6-fluoro-7-(2-fluoro-6-hydroxy-phenyl)-1-(2-isopropyl-4-methyl-3-pyridyl)pyrido[2,3-d]pyrimidin-2-one]",22.2
3,"C=CC(=O)N1CCN(c2nc(=O)n(-c3c(C)ccnc3C(C)C)c3nc(-c4c(O)cccc4F)c(F)cc23)C(C)C1C (single isomer, unassigned) [Example 124-14-2, 4-[cis-2,3-dimethyl-4-prop-2-enoyl-piperazin-1-yl]-6-fluoro-7-(2-fluoro-6-hydroxy-phenyl)-1-(2-isopropyl-4-methyl-3-pyridyl)pyrido[2,3-d]pyrimidin-2-one]",59.5
4,"C=CC(=O)N1CCN(c2nc(=O)n(-c3c(C)ccnc3C(C)C)c3nc(-c4c(O)cccc4F)c(F)cc23)C(C)C1C (single isomer, unassigned) [Example 124-16-1, 4-[trans-2,3-dimethyl-4-prop-2-enoyl-piperazin-1-yl]-6-fluoro-7-(2-fluoro-6-hydroxy-phenyl)-1-(2-isopropyl-4-methyl-3-pyridyl)pyrido[2,3-d]pyrimidin-2-one]",1.12
5,"C=CC(=O)N1CCN(c2nc(=O)n(-c3c(C)ccnc3C(C)C)c3nc(-c4c(O)cccc4F)c(F)cc23)C(C)C1C (single isomer, unassigned) [Example 124-16-2, 4-[trans-2,3-dimethyl-4-prop-2-enoyl-piperazin-1-yl]-6-fluoro-7-(2-fluoro-6-hydroxy-phenyl)-1-(2-isopropyl-4-methyl-3-pyridyl)pyrido[2,3-d]pyrimidin-2-one]",7.37
6,"C=CC(=O)N1C[C@H](C)N(c2nc(=O)n(-c3c(C(C)C)ccnc3C(C)C)c3nc(-c4ccccc4C)c(F)cc23)C[C@H]1C (single isomer, unassigned) [Example 125-5]",0.46
7,"C=CC(=O)N1C[C@H](C)N(c2nc(=O)n3c4nc(c(Cl)cc24)-c2ccccc2C/C=C/Cc2cccc(C(C)C)c2-3)C[C@H]1C (single isomer, unassigned) [Example 146-1-1]",9.43
8,"C=CC(=O)N1C[C@H](C)N(c2nc(=O)n3c4nc(c(Cl)cc24)-c2ccccc2C/C=C\Cc2cccc(C(C)C)c2-3)C[C@H]1C (single isomer, unassigned) [Example 146-1-2]",53.8
9,"C=CC(=O)N1C[C@H](C)N(c2nc(=O)n3c4nc(c(Cl)cc24)-c2ccccc2C/C=C/Cc2ccccc2-3)C[C@H]1C (single isomer, unassigned) [Example 146-3-1]",204
10,"C=CC(=O)N1C[C@H](C)N(c2nc(=O)n3c4nc(c(Cl)cc24)-c2ccccc2C/C=C\Cc2ccccc2-3)C[C@H]1C (single isomer, unassigned) [Example 146-3-3]",57.3
11,"C=CC(=O)N1C[C@H](C)N(c2nc(=O)n(-c3c(C(C)C)cccc3S(C)(=O)=O)c3nc(-c4ccccc4F)c(Cl)cc23)C[C@H]1C (single isomer, unassigned) [Example 208-1]",2.56
12,"C=CC(=O)N1[C@H](C)CN(c2nc(=O)n(-c3c(C)ccnc3C(C)C)c3nc(-c4ccccc4F)c(Cl)nc23)C[C@@H]1C (single isomer, unassigned) [Example 224-1]",23.3
13,"C=CC(=O)N1[C@H](C)CN(c2nc(=O)n(-c3c(C)ccnc3C(C)C)c3nc(-c4ccccc4F)c(Cl)nc23)C[C@@H]1C (single isomer, unassigned) [Example 224-2]",1.29
14,"C=CC(=O)N1C[C@H](C)N(c2nc(=O)n(-c3c(C)ccnc3C(C)C)c3nc(-c4ccccc4F)c(C)nc23)C[C@H]1C (single isomer, unassigned) [Example 225-1]",7.62
15,"C=CC(=O)N1C[C@H](C)N(c2nc(=O)n(-c3c(C)ccnc3C(C)C)c3nc(-c4ccccc4F)c(C)nc23)C[C@H]1C (single isomer, unassigned) [Example 225-2]",0.501
16,"C=CC(=O)N1C[C@H](C)N(c2nc(=O)n(-c3c(C)ccnc3C(C)C)c3nc(-c4ccccc4F)c(C)nc23)C[C@H]1C (single isomer, unassigned) [Example 225]",4.43
17,C=CC(=O)N1C[C@H](C)N(c2nc(=O)n(-c3c(C)ccnc3C(C)C)c3nc(-c4ncccc4OC)c(Cl)cc23)C[C@H]1C [96-2],1.22
18,"C=CC(=O)N1C[C@H](C)N(c2nc(=O)n(-c3c(N(C)C)ccnc3C(C)C)c3nc(-c4ccccc4S(C)(=O)=O)c(Cl)cc23)C[C@H]1C [Example 55-53, 6-Chloro-1-[4-(dimethylamino)-2-isopropyl-3-pyridyl]-4-[(2S,5R)-2,5-dimethyl-4-prop-2-enoyl-piperazin-1-yl]-7-(2-methylsulfonylphenyl)pyrido[2,3-d]pyrimidin-2-one]",0.356
19,"C=CC(=O)N1C[C@H](C)N(c2nc(=O)n(-c3ccccc3P(C)(C)=O)c3nc(-c4ccccc4F)c(Cl)cc23)C[C@H]1C [Example 55-55, 6-Chloro-1-(2-dimethylphosphorylphenyl)-4-[(2S,5R)-2,5-dimethyl-4-prop-2-enoyl-piperazin-1-yl]-7-(2-fluorophenyl)pyrido[2,3-d]pyrimidin-2-one]",3.14
20,"C=CC(=O)N1C[C@H](C)N(c2nc(=O)n(-c3c(C(C)C)ncnc3C(C)C)c3nc(-c4ccccc4C#N)c(Cl)cc23)C[C@H]1C [Example 100-3, 2-[6-Chloro-1-(4,6-diisopropylpyrimidin-5-yl)-4-[(2S,5R)-2,5-dimethyl-4-prop-2-enoyl-piperazin-1-yl]-2-oxo-pyrido[2,3-d]pyrimidin-7-yl]benzonitrile]",0.763
21,"C=CC(=O)N1CCN(c2nc(=O)n(CC(C)(C)C)c3nc(Cl)c(Cl)cc23)CC1 [Example 100-5, 6,7-Dichloro-1-(2,2-dimethylpropyl)-4-(4-prop-2-enoylpiperazin-1-yl)pyrido[2,3-d]pyrimidin-2-one]",58.3
22,"C=CC(=O)N1CCN(c2nc(=O)n(CC(C)(C)C)c3ncccc23)CC1 [Example 100-6, 1-(2,2-dimethylpropyl)-4-(4-prop-2-enoylpiperazin-1-yl)pyrido[2,3-d]pyrimidin-2-one]",250
